In patent publication US8623917B2, “Uses of prostacyclin analogs” (The Regents of the University of Colorado, a body corporate, priority 2005, dated 2014):

Assays:
[1] = tested on: urethane-induced lung tumors; assay: Urethane lung tumorigenesis protocol, oral Iloprost in diet; assay type: in vivo, FVB/N mice
Experimental: (§1) Transgenic mice (Tg^+) and wildtype littermates (Tg^−), 8 to 12 weeks of age, were subjected to two distinct lung carcinogenesis protocols. In the first model, urethane (ethyl carbamate), a carcinogen which selectively induces pulmonary adenomas through genetic mutations in the oncogene ras, was administered in a single intraperitoneal (ip) dose. […] BHT is a tumor promoter and induces reversible pulmonary damage characterized by alveolar type I cell necrosis, selective pulmonary inflammation, and hyperplasia of alveolar type II cells. Controls for both models consisted of mice injected with vehicle alone. The oral administration of Iloprost was investigated and found to have a similar beneficial effects to PGIS overexpression. FVB/N mice were fed a diet of low (0.1%) or high (3.0%) dose Iloprost continuously throughout the experiment and then were subjected to tumorigenesis protocols with either urethane or MCA/BHT. At the conclusion of the experiments, animals were euthanized and tumors enumerated.

[2] = tested on: MCA/BHT-induced lung tumors; assay: MCA/BHT lung tumorigenesis protocol, oral Iloprost in diet; assay type: in vivo, FVB/N mice
Experimental: as §1

[3] = tested on: cancer metastasis to the lung; details: Iloprost administered to mice; cited from earlier work
[4] = 3.0% Iloprost diet compared with 0.1%
[5] = diet of low (0.1%) or high (3.0%) dose Iloprost continuously

CC#CCC(C)[C@H](O)/C=C/[C@@H]1[C@H]2C/C(=C/CCCC(=O)O)C[C@H]2C[C@H]1O (some centres unmarked) [Iloprost]
reduction in multiplicity, high versus low dose [1, 4]: greater reduction in multiplicity | tumor multiplicity [1, 5]: significant reduction in tumor multiplicity | reduction in multiplicity, high versus low dose [2, 4]: greater reduction in multiplicity | tumor multiplicity [2, 5]: significant reduction in tumor multiplicity | prevention of cancer metastasis to the lung [3]: did not prevent cancer metastasis to the lung
